According to the NIST ThermoML archive (doi:10.1016/j.tca.2012.04.001):

Experiments:
[1] = 101.33 kPa, Liquid, Vibrating tube method
[2] = xn = mol fraction of the nth substance listed; conditions: 101 kPa, Liquid, Vibrating tube method

CCC(C)=O [butanone]
[1]
Conditions	mass density [kg/m3]
288.15 K	810.328
303.15 K	794.629
313.15 K	784.008

CCC(C)=O [butanone] + CCCCCCC
mass density [kg/m3], [2]
Conditions	288.15 K	303.15 K	313.15 K
x2 = 0.0488	799.693	784.166	773.658
x2 = 0.0875	791.829	776.433	766.011
x2 = 0.1976	771.92	756.87	746.674
x2 = 0.2409	764.837	749.92	739.808
x2 = 0.2995	755.954	741.212	731.216
x2 = 0.3726	745.725	731.183	721.184
x2 = 0.444	736.645	722.313	712.588
x2 = 0.4708	733.346	719.166	709.492
x2 = 0.5132	728.532	714.398	704.806
x2 = 0.5941	719.999	706.083	696.646
x2 = 0.7024	709.67	696.076	686.851
x2 = 0.7471	705.937	692.464	683.324
x2 = 0.8016	701.621	688.317	679.294
x2 = 0.8341	699.194	686.007	677.044
x2 = 0.896	694.863	681.831	672.997
x2 = 0.9545	691.133	678.282	669.575
